Data on 2 molecules can be found in patent US20230210984A1, “ADOPTIVE IMMUNOTHERAPY” (The Council of the Queensland Institute of Medical Research, priority 2019, published 2023).

Common to all, as to type: cell-based
Assay [1] deals with SNU719 and C666.1 cells. As to the kind of experiment: MTS cell viability with HLA-mismatched versus HLA-matched T cells and inhibitors. Conditions: for effect of HLA-matched vs HLA-mismatched T cells in presence of inhibitor: MEK1/2 inhibitors 1 μM, JQ1 2.5 μM, T cells 25:1; for cell viability: 48 hrs. As to the method: FIG. 12: Combination of MEK1/2 inhibitors with HLA mismatched allogeneic-specific T cells. […] The data are represented as the mean±SD from three independent experiments. P-values were calculated using one-way ANOVA: ns=not significant, *=p<0.05, **=p<0.01, ***=p<0.001 and ****=p<0.0001.
FIG. 16: Combination of JQ1 inhibitors with HLA mismatched all T cells. […] The data are represented as the mean±SD from three independent experiments. P-values were calculated using one-way ANOVA: ns=not significant, *=p<0.05, **=p<0.01, ***=p<0.001 and ****=p<0.0001.
Next, we wanted to determine the specificity of the combination and as such we challenged SNU719 and C666.1 cells with HLA-mismatched allogeneic T cells alongside MEK1/2 inhibitors (both selumetanib and trematinib), individually and in combination.
Next, we wanted to determine the specificity of the combination and as such we challenged SNU719 and C666.1 cells with HLA-mismatch allogeneic T cells alongside JQ1 inhibitor individually and in combination.

Assay [2] has as its system SNU719 and C666.1 cells. Kind of assay: Flow cytometry of cancer cell intrinsic pathways and immune regulatory molecules. The settings on record: 16 hours, JQ1 2.5 μM; for MHC-Class I expression: inhibitor alone and in combination with HLA-matched T cells; for MHC-Class I expression / MYC expression / pERK1/2 expression / pSTAT3 expression: selumatinib 1 μM. As to the method: FIG. 13: Phenotyping the impact of dual combination of MEK1/2 inhibitor and HLA matched allogeneic EBV specific T coils on cancer cell intrinsic pathways. Representation of the cancer cell phenotype after 16 hours of individual and dual combination of selumatinib (1 μM) and HLA-matched EBV specific T cells (effector-to-target ratio of 25:1) among SNU719 (upper panel) and C666.1 (lower panel) on the expression of (A) pERK1/2; (B) MHC-Class I; (C) pSTAT3; and (D) MYC performed using flow cytometry. The data are represented as the mean±SD from three independent experiments. P-values were calculated using one-way ANOVA: ns=not significant, *p<0.05, **p<0.01, ***p<0.001 and ****p<0.0001.
FIG. 17: Phenotyping the impact of dual combination of JQ1 inhibitor and MLA matched allogeneic EBV-specific T cells on cancer cell intrinsic pathways. Representation of the cancer cell phenotype after 16 hours of individual and dual combination of JQ1 (2.5 μM) and HLA-matched EBV specific T cells (effector-to-target ratio of 25:1) among SNU719 (upper panel) and C666.1 (lower panel) on the expression of (A) MYC; (B) pERK1/2; (C) pAKT; and (D) pSTAT3 performed using flow cytometry. The data are represented as the mean±SD from three independent experiments. P-values were calculated using one-way ANOVA: ns=not significant, *p<0.05, **p<0.01, ***p<0.001 and ****p<0.0001.
FIG. 18: Phenotyping the impact of dual combination of JQ1 inhibitor and HLA matched allogeneic EBV specific T cells on immune regulatory molecules. Representation of the cancer cell phenotype after 16 hours of individual and dual combination of JQ1 (2.5 μM) and HLA-matched EBV specific T cells (effector-to-target ratio of 25:1) among SNU719 (upper panel) and C666.1 (lower panel) on the expression of (A) MHC Class-I; (B) PD-L1; and (C) CD47 performed using flow cytometry. The data are represented as the mean±SD from three independent experiments. P-values were calculated using one-way ANOVA: ns=not significant, *p<0.05, **p<0.01, ***p<0.001 and ****p<0.0001.
In next set of experiments, we wanted to investigate the effect of the dual combination the cancer cell intrinsic pathway and describe the rationale of the effective combination of MEK1/2 inhibition with T cell treatment. […] As a result, we observed upregulation of MHC-Class I expression in presence of selumatinib alone and in combination with respective HLA-matched T cells (FIG. 13B). […] Thus, inhibition of MEK1/2 pathway results in upregulation of MHC-class I expression via upregulation of STAT3 pathway and downregulation of MYC which enabling better therapeutic compatibility in presence of HLA-matched allogeneic T cells.
Next, we wanted to determine the specificity of the combination and as such we challenged SNU719 and C666.1 cells with HLA-mismatch allogeneic T cells alongside JQ1 inhibitor individually and in combination. […] In next set of experiments, we wanted to investigate rationale of the effective combination of JQ1 inhibition with T cell treatment. […] As a result, it caused downregulation of pERK1/2, pAKT and pSTAT3 expression (FIG. 17B-C).

Assay [3] has as its system C17, C666.1, SNU719 and YCCLE1 cells. Kind of assay: MTS cell viability, inhibitor combined with HLA matched allogeneic EBV-specific T cells (Example 3). The settings on record: combination with HLA matched EBV-specific T cells 25:1 vs individual treatment, 48 hrs; MEK1/2 inhibitors 1 μM, JQ1 2.5 μM. As to the method: The data are represented as the mean±SD from three independent experiments. P-values were calculated using one-way ANOVA: ns=not significant, *=p<0.05, **=p<0.01, ***=p<0.001 and ****=p<0.0001.
The data are represented as the mean±SD from three independent experiments.

The mark [4] stands for this setting: combination with HLA-mismatch allogeneic T cells 25:1 vs DMSO treated control.
Setting [5] is: combination with HLA-mismatch allogeneic T cells 25:1 vs inhibitor alone.

For `Cn1cnc2c(F)c(Nc3ccc(Br)cc3Cl)c(C(=O)NOCCO)cc21` [selumetanib], the “effect of HLA-matched vs HLA-mismatched T cells in presence of inhibitor” value with SNU719 and C666.1 cells [1] is recorded as “significantly amplified”. In addition, the cell viability entry with SNU719 and C666.1 cells [1] (setting [4]) was “significant reduction in cell viability”. In the assay with SNU719 and C666.1 cells [1] (setting [5]), the cell viability result is listed as “no significant reduction in cell viability”. Besides, in the assay with SNU719 and C666.1 cells [2], the “MHC-Class I expression” value was “upregulation”, the MYC expression result is given as “downregulation”, the pERK1/2 expression entry was “significant reduction” and the pSTAT3 expression entry is “upregulation”. The cell viability result in assay [3] is listed as “significantly reduced”.
For the molecule `Cc1sc2c(c1C)C(c1ccc(Cl)cc1)=N[C@@H](CC(=O)OC(C)(C)C)c1nnc(C)n1-2` [JQ1], in the assay on SNU719 and C666.1 cells [1], the “effect of HLA-matched vs HLA-mismatched T cells in presence of inhibitor” value is reported as “significantly amplified”. The cell viability result in the assay on SNU719 and C666.1 cells [1] (setting [4]) is recorded as “significant reduction in cell viability”. Also, in the assay on SNU719 and C666.1 cells [1] (setting [5]), the cell viability result is given as “no significant reduction in cell viability”. Moreover, in the assay with SNU719 and C666.1 cells [2], the CD47 expression entry is listed as “downregulation”, the PD-L1 expression entry was “downregulation”, the pAKT expression result is reported as “downregulation” and the “MHC-Class I expression” value is “enhancing”. Besides, in the assay on SNU719 and C666.1 cells [2], the MYC expression entry is reported as “significant reduction”, the pERK1/2 expression result is given as “downregulation” and the pSTAT3 expression result is listed as “downregulation”. Also, in assay [3], the cell viability entry is “significantly reduced”.
